The source made the active and inactive calls.
Tests used:
[1] = biological target: T1, Endoribonuclease toxin MazF (Escherichia coli K-12, UniProt P0AE70); experiment: MazF toxin RNase activators, dose response, biochemical, fluorescence, single-stranded RNA substrate, uHTS hits (AID 588481); format: functional
T1 sequence (P0AE70 whole entry): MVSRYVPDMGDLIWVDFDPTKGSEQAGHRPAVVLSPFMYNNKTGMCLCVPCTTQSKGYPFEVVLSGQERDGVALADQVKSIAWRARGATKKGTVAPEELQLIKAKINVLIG

[2] = biological target: Benomyl/methotrexate resistance protein (Candida albicans, UniProt P28873); experiment: CaMdr1 efflux pump inhibitor potency, dose response, singleplex, Cherry Pick1 hits (AID 588608); format: functional
[3] = biological target: T1, Endoribonuclease toxin MazF; experiment: fluorescent RNA oligo signal without MazF, dose response, counter-screen for MazEF activator project, biochemical, fluorescence, single-stranded RNase substrate (AID 588502); format: functional
[4] = LMP1-driven NF-kB reporter inhibition, dose response, cell-based, luciferase reporter, luminescence, dry powder, set 2 (AID 624376); format: functional
[5] = biological target: T2, Neuropeptides B/W receptor type 1 (Homo sapiens, UniProt P48145); experiment: GPR7 antagonist potency, late-stage follow-up, cell-based, fluorescence, dose response, set 6 (AID 588583); format: functional
T2 sequence (P48145 whole entry): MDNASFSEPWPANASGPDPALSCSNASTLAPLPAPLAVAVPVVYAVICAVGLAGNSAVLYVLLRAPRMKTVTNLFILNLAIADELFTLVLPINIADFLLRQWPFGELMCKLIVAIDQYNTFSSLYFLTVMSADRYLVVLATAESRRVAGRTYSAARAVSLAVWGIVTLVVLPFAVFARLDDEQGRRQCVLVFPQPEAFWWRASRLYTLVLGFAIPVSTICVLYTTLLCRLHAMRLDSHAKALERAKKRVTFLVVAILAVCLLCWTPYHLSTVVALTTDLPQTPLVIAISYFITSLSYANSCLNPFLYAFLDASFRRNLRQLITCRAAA

[6] = biological target: Melanin-concentrating hormone receptor 1 (Homo sapiens, UniProt Q99705); experiment: Late-stage fluorescence-based counterscreen for antagonists of the G-protein coupled receptor 7 (GPR7): cell-based dose response assay to identify antagonists of the melanin-concentrating hormone receptor 1 (MCHR1) Set 6.; format: functional
[7] = biological target: Botulinum neurotoxin type A (Clostridium botulinum (strain Hall / ATCC 3502 / NCTC 13319 / Type A), UniProt P0DPI1); experiment: High-throughput multiplex microsphere dose response for inhibitors of toxin protease, specifically Botulinum neurotoxin light chain A protease, compounds from Powder Set 01.; format: functional, Clostridium botulinum A str. ATCC 3502; conditions: read-out: EC50_MICROM
[8] = biological target: Lethal factor (Bacillus anthracis, UniProt P15917); experiment: High-throughput multiplex microsphere dose response for inhibitors of toxin protease, specifically Lethal Factor protease, compounds from Powder Set 01.; format: functional, Bacillus anthracis str. A2012; conditions: read-out: EC50_MICROM
[9] = biological target: T3, High affinity choline transporter 1 (Homo sapiens, UniProt Q9GZV3); experiment: CHT inhibitors, dose response, cell-based, 5-point CRC, membrane potential dye (AID 504840); format: functional
T3 sequence (Q9GZV3 whole entry): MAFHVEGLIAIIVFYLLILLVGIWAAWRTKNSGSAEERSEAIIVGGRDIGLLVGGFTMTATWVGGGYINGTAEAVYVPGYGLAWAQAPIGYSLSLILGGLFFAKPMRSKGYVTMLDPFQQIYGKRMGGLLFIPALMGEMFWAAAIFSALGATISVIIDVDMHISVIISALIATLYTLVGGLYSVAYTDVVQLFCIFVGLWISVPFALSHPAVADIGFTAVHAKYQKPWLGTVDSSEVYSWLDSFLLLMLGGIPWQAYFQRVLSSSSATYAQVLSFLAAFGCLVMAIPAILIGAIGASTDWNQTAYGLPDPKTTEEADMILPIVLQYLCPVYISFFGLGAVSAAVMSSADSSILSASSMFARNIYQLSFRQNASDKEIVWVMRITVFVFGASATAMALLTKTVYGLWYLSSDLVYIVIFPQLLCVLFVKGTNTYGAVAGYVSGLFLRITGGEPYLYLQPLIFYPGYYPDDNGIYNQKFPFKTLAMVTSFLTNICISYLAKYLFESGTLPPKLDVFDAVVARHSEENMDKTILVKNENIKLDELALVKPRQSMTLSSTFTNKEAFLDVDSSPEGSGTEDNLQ

[10] = biological target: T3, High affinity choline transporter 1; experiment: CHT inhibitors, dose response, cell-based, 10-point CRC, membrane potential dye (AID 588401); format: functional;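 note: membrane potential dye fluorescence of choline-evoked depolarization via CHT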
[11] = biological target: Beta-galactosidase (Escherichia coli, UniProt Q8VNN2); experiment: Dose response counterscreen for EBI2 assay utilizing the enzyme, b-galactosidase.; format: functional
[12] = biological target: T4, Insulin-degrading enzyme (Homo sapiens, UniProt P14735); experiment: activators of endogenous IDE in HEK cells, dose response, cell-based, fluorescence polarization (AID 588439); format: functional
T4 sequence (P14735 whole entry): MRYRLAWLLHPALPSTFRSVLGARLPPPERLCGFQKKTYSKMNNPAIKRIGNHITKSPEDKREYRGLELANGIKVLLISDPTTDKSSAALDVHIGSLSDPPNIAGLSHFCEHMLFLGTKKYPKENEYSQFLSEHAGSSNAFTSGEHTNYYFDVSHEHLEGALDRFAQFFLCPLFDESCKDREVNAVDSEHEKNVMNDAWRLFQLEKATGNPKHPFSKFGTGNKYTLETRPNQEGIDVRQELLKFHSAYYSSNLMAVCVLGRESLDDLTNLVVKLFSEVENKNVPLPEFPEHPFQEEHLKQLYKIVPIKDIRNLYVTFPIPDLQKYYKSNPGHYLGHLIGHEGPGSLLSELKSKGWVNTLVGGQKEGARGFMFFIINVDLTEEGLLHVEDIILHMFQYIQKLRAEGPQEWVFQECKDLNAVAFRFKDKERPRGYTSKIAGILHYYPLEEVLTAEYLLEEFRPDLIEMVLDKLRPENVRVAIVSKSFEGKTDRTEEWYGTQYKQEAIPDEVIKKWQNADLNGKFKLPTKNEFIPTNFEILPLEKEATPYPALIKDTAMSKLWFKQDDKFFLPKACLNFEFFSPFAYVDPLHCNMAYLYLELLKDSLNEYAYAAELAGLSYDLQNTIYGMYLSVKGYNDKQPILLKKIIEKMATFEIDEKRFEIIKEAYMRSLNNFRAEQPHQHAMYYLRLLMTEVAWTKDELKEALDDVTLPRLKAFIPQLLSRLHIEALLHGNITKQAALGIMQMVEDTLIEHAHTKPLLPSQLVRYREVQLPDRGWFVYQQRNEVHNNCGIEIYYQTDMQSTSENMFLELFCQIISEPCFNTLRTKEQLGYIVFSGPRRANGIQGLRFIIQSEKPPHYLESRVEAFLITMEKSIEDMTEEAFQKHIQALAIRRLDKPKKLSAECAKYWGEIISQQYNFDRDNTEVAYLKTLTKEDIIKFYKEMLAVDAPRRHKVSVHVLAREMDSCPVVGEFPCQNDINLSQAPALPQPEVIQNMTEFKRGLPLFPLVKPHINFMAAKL

[13] = tested on: HEK293; experiment: optical interference in Abeta FP readout, dose response, artefact control for IDE activator project, biochemical, fluorescence polarization (AID 588442); format: functional, cell-based; conditions: Homo sapiens
[14] = biological target: T4, Insulin-degrading enzyme; experiment: activators of recombinant IDE enzyme, dose response, counter-screen for IDE activator project, biochemical, fluorescence polarization (AID 588681)
[15] = tested on: HEK293; experiment: HEK cell cytotoxicity by LDH release, dose response, cytotoxicity control for IDE activator project, fluorescence, HEK cells (AID 588440); format: functional, cell-based; conditions: Homo sapiens;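 note: cytotoxicity by LDH release measuring loss of membrane integrity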
[16] = biological target: Beta-lactamase (Salmonella choleraesuis (strain SC-B67), UniProt Q5J463)
[17] = biological target: Beta Lactamase (Pseudomonas aeruginosa, UniProt Q932Y6);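 note: confirmatory high-throughput screen measuring VIM-2 metallo-beta-lactamase inhibition by epi-absorbance in dose response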
[18] = biological target: Beta-lactamase (Pseudomonas aeruginosa, UniProt Q79MP6);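 note: biochemical dose-response test of metallo-beta-lactamase enzyme inhibition, read out by epi-absorbance; purified recombinant IMP-1 metallo-beta-lactamase with nitrocefin as substrate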
Sequence of Beta-lactamase (Pseudomonas aeruginosa, UniProt Q79MP6) (Q79MP6 whole entry): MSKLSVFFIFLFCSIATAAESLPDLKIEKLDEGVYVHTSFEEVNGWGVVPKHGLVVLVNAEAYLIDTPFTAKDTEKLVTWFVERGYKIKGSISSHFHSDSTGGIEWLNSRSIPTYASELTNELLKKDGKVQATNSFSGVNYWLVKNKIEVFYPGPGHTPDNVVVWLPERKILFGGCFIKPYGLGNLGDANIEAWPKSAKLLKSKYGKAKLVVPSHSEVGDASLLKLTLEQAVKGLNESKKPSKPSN

Sequence of Lethal factor (P15917 whole entry): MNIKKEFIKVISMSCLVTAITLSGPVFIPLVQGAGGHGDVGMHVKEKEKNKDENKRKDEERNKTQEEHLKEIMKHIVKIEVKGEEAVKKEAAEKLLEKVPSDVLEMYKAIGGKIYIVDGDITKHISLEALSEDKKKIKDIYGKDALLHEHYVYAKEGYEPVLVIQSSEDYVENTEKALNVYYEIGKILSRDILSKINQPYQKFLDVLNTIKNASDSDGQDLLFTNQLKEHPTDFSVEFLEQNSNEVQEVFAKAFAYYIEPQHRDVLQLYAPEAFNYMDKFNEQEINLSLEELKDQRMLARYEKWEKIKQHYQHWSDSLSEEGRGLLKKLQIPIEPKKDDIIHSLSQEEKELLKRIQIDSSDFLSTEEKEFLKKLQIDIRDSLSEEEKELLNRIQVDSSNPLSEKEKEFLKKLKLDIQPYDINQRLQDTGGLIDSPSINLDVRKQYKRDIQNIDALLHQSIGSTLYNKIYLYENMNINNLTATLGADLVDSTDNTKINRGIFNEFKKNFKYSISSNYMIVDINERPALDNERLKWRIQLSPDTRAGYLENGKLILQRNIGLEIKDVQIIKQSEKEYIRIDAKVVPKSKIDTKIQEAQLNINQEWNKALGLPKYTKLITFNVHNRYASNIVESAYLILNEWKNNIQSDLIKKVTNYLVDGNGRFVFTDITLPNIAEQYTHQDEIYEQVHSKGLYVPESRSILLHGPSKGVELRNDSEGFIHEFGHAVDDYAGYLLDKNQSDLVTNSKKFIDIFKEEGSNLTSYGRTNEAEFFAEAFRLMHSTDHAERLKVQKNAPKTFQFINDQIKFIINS
Sequence of Beta Lactamase (Q932Y6 whole entry): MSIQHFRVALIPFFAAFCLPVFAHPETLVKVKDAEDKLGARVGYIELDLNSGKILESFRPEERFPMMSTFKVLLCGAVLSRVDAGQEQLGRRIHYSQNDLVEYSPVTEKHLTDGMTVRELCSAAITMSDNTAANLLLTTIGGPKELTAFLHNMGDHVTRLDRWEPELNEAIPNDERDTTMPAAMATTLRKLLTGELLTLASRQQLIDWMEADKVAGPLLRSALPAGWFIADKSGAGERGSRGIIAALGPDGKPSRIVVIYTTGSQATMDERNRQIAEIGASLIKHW
Sequence of Beta-galactosidase (Q8VNN2 whole entry): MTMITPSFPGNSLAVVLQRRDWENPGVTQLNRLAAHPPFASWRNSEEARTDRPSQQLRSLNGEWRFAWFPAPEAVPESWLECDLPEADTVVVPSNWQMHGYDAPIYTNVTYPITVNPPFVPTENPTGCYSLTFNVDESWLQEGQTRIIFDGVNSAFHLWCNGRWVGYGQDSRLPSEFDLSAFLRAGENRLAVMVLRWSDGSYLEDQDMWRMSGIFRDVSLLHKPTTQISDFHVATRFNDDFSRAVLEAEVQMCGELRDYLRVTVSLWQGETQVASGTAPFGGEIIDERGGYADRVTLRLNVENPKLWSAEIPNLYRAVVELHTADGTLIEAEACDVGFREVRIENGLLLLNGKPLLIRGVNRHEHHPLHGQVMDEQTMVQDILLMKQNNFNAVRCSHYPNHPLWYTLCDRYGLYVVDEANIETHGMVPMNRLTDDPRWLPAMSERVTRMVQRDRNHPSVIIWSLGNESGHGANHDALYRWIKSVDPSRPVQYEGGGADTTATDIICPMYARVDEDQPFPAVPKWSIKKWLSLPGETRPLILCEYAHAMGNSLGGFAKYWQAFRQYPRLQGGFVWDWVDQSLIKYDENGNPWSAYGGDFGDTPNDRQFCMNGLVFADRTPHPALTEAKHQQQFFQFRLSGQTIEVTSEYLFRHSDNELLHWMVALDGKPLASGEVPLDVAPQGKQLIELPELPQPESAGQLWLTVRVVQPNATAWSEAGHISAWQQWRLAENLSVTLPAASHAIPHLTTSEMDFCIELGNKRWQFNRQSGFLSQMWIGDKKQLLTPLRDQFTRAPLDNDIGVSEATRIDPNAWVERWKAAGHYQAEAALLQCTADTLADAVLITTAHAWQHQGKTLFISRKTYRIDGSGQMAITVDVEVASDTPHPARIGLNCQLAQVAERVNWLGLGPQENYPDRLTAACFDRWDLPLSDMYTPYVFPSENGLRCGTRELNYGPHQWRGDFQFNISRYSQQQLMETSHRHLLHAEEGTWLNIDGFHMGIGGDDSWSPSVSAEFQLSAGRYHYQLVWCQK
Sequence of Benomyl/methotrexate resistance protein (P28873 whole entry): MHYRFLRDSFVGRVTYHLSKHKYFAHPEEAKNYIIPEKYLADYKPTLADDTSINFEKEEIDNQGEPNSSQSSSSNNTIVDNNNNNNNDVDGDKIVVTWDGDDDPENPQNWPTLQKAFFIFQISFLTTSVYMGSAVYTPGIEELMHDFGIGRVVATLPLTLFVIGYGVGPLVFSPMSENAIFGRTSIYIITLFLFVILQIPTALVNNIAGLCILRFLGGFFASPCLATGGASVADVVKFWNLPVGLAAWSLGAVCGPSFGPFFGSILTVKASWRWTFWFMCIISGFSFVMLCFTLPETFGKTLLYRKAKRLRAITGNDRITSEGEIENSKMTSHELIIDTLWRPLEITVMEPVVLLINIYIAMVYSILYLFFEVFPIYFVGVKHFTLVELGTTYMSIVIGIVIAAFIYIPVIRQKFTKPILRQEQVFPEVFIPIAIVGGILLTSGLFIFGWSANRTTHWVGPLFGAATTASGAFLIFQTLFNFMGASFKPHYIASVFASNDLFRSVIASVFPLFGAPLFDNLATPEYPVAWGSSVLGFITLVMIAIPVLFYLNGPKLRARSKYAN
Sequence of Melanin-concentrating hormone receptor 1 (Q99705 whole entry): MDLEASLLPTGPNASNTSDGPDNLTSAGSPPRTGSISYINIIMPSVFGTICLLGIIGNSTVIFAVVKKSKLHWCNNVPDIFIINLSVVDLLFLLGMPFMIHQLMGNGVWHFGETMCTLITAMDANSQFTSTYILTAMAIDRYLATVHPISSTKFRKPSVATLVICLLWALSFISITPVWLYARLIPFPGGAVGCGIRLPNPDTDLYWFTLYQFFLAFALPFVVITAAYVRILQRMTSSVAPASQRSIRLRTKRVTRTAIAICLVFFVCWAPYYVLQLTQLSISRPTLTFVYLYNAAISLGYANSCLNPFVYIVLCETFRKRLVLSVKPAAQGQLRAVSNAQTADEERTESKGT
Sequence of Beta-lactamase (Salmonella choleraesuis (strain SC-B67), UniProt Q5J463) (Q5J463 whole entry): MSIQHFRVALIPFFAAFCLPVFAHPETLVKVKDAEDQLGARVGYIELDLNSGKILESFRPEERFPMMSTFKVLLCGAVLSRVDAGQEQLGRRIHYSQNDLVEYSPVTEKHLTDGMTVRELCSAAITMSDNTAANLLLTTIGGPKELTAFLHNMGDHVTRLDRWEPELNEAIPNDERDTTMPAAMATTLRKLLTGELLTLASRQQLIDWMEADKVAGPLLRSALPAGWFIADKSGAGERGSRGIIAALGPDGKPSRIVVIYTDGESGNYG
Sequence of Botulinum neurotoxin type A (P0DPI1 2-448 limits assumed): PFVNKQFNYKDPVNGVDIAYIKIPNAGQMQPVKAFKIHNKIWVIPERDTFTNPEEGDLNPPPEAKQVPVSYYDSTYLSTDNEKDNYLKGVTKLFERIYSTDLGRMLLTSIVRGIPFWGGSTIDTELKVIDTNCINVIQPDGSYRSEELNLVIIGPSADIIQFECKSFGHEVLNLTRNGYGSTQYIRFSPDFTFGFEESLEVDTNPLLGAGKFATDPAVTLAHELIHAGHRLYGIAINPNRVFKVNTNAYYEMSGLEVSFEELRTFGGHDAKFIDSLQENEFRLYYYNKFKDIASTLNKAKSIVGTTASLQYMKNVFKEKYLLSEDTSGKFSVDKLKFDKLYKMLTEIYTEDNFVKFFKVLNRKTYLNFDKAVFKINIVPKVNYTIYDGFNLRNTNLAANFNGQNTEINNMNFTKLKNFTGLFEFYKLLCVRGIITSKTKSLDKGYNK

Compound: COc1ccc(/C=C2\SC(c3ccc(C)cc3)=NC2=O)cc1OC
- EC50 [1]: > 99 µM (inactive)
- EC50 [2]: 5.12 µM (active)
- EC50 [3]: > 99 µM (inactive)

Compound: O=C(Cc1ccccn1)NCC[C@H]1CC[C@H](NC(=O)Nc2ccc(Cl)cc2)[C@H](CO)O1
- AbsAC35 [4]: 142.06 µM

Compound: N#CC(c1cccc(C(F)(F)F)c1)c1c(Cl)cnn(Cc2cccc3ccccc23)c1=O (stereo not drawn)
- IC50 [5]: 1.53 µM (active)
- IC50 [6]: 1.53 µM (active)

Compound: COc1ccc(-c2cn3nc(-c4ccccc4)c(-c4ccccc4)nc3n2)cc1
- EC50 [7]: 4 µM (active)
- EC50 [8]: 3.3 µM (active)

Compound: CC(=O)OC1CC2(C)C(=O)CCC2C2CCc3cc(O)ccc3C12 (stereo not drawn)
- IC50 [9]: 9.28 µM (active)
- IC50 [10]: 3.36 µM (active)

Compound: O=C(/C=C/c1ccc(Cl)cc1)N1CCN(Cc2ccccc2)CC1
- IC50 [11]: > 80 µM (inactive)

Compound: CNC[C@@H]1Oc2ccc(NS(=O)(=O)c3ccc(OC)cc3)cc2CC(=O)N([C@H](C)CO)C[C@@H]1C
- EC50 [12]: > 54.7 µM (inactive)
- EC50 [13]: > 55.9 µM (inactive)
- EC50 [14]: > 54.7 µM (inactive)
- IC50 [15]: > 89.2 µM (inactive)

Compound: CC(=O)N(c1cccc(C)c1)C1SC(=O)N(c2ccccc2)C1=O (stereo not drawn)
- IC50 [16]: > 59.6 µM (inactive)
- IC50 [17]: 54.3 µM (inactive)
- IC50 [18]: 30.8 µM (inactive)

From ChEMBL document CHEMBL1201862, “PubChem BioAssay data set” (2004)
